Measurements: patent US11660328B2, “GLP-2 analogs and peptibodies for administration before, during or after surgery” (TAKEDA PHARMACEUTICAL COMPANY LIMITED, priority 2017, dated 2023)

Tested on: small intestine
Test: Histology study of villi length and crypt depth (H&E sections, imagescope)
Format: in vivo, female CD-1 mice
Conditions: after administration vs without treatment, FIGS. 1-3; for villus height: small intestine
Procedure: Various doses of GLP-2 peptibody B264 were analyzed to assess the pharmacodynamic plateau, with the primary endpoint a measurement of the small intestinal weight relative to the total body weight and a histology study of the length of villi. 11 groups of six female CD-1 mice each were formed. [table] For histology, four micron paraffin sections were prepared for H&E and Ki67 IHC staining. After whole slide scanning, an imagescope was used to measure villi length and crypt depth, and to analyze Ki67. The antibody against Ki67 is a rabbit antibody sold by Adcam®, catalog number ab 616667. The antibody was used at a working concentration of 1:100 and was detected using a Leica® Refine Kit. […] See, e.g., Example 13 of U.S. Provisional Application No. 62/548,601, filed Aug. 22, 2017 for more data and examples with respect to GLP-2 peptibody B264, GLP-2 peptibody […], and a GLP-2[[…]] peptide.

| Compound | crypt depth in the small intestine | villus height |
| --- | --- | --- |
| CC[C@H](C)[C@H](NC(=O)[C@H](Cc1ccccc1)NC(=O)[C@H](CC(=O)O)NC(=O)[C@H](CCCNC(=N)N)NC(=O)[C@H](C)NC(=O)[C@H](C)NC(=O)[C@H](CC(C)C)NC(=O)[C@H](CC(N)=O)NC(=O)[C@H](CC(=O)O)NC(=O)[C@H](CC(C)C)NC(=O)[C@@H](NC(=O)[C@@H](NC(=O)[C@H](CC(N)=O)NC(=O)[C@H](CCSC)NC(=O)[C@H](CCC(=O)O)NC(=O)[C@H](CC(=O)O)NC(=O)[C@H](CO)NC(=O)[C@H](Cc1ccccc1)NC(=O)[C@H](CO)NC(=O)CNC(=O)[C@H](CC(=O)O)NC(=O)CNC(=O)[C@@H](N)Cc1c[nH]cn1)[C@@H](C)O)[C@@H](C)CC)C(=O)N[C@@H](CC(N)=O)C(=O)N[C@@H](Cc1c[nH]c2ccccc12)C(=O)N[C@@H](CC(C)C)C(=O)N[C@H](C(=O)N[C@@H](CCC(N)=O)C(=O)N[C@H](C(=O)N[C@@H](CCCCN)C(=O)N[C@H](C(=O)N[C@H](C(=O)N[C@@H](CC(=O)O)C(=O)O)[C@@H](C)O)[C@@H](C)CC)[C@@H](C)O)[C@@H](C)CC [h(Gly2)GLP-2, teduglutide, reference compound] | increased crypt depth | increased villus height |
| GLP-2 peptibody K274: GLP-2 peptibody having the amino acid sequence of SEQ ID NO: 4 (GLP-2[A2G]-linker-IgG1 Fc fusion) | increased crypt depth | increased villus height |
